Earlier results in patent US20260216106A1, “DOSAGE FORM FOR INTRA-ARTICULAR INJECTION […] USE IN THE TREATMENT OF A JOINT DISEASE SUCH AS OSTEOARTHRITIS” (priority 2023, published 2026).

Conditions: literature (Niel et al 2006)

## COc1cc2c(c(OC)c1OC)-c1ccc(OC)c(=O)cc1[C@@H](NC(C)=O)CC2 [colchicine, N-[(7S)-1,2,3,10-tetramethoxy-9-oxo-6,7-dihydro-5H-benzo[a]heptalen-7-yl]acetamide]
  lethal dose: 0.8 mg/kg
  toxicity limit dose: 0.1 mg/kg
